Structures can show the parent of a compound that is named as a salt.
The molecules below were run against T1, SYK (Homo sapiens, UniProt P43405) (assay: Biochemical kinase inhibition assay on SYK, KinaseGlo assay format). Conditions: Table A; KinaseGlo format, pre-activated SYK 2.5 nM, ATP 2.5 μM, substrate BioDBn*327 125 uM, 60 minutes at rt; read-out: IC50 (μM) Kglo.
T1 construct: Recombinant proteins SYK FL was produced at NMS via baculo virus infection in insect cells; His; GST; made in house; host or cells: insect cells (baculovirus)

With `C[C@@H](CO)NC(=O)c1cc(-c2ccnc(Nc3ccc(N4CCN(C)CC4)c(Cl)c3)n2)nn1C` [Example 110, 3-(2-{[3-chloro-4-(4-methylpiperazin-1-yl)phenyl]amino}pyrimidin-4-yl)-N-[(2S)-1-hydroxypropan-2-yl]-1-methyl-1H-pyrazole-5-carboxamide] as the molecule, how does the IC50 read?
Its IC50 is 0.452 µM.

Which IC50 does the source give for `CN(C)CCNC(=O)c1cc(-c2ccnc(Nc3cc(C(F)(F)F)cc(C(F)(F)F)c3)n2)nn1C` [Example 18, 3-(2-{[3,5-bis(trifluoromethyl)phenyl]amino}pyrimidin-4-yl)-N-[2-(dimethylamino)ethyl]-1-methyl-1H-pyrazole-5-carboxamide hydrochloride] here?
The IC50 was 0.491 µM.

Which IC50 does the source give for `Cc1cc(C)cc(Nc2nccc(-c3cc(C(=O)N4CC[C@@H](O)C4)n(C)n3)n2)c1` [Example 85, (3-{2-[(3,5-dimethylphenyl)amino]pyrimidin-4-yl}-1-methyl-1H-pyrazol-5-yl)[(3R)-3-hydroxypyrrolidin-1-yl]methanone] here?
The IC50 was 0.209 µM.

`Cc1cc(C)cc(Nc2nccc(-c3cc(C(=O)NC4CN5CCC4CC5)n(C)n3)n2)c1` (centres unmarked) [Example 31, N-(1-azabicyclo[2.2.2]oct-3-yl)-3-{2-[(3,5-dimethylphenyl)amino]pyrimidin-4-yl}-1-methyl-1H-pyrazole-5-carboxamide] was tested. Which IC50 did it give?
The IC50 was 0.139 µM.

How did the IC50 turn out when `Cc1cccc(Nc2nccc(-c3cc(C(=O)N[C@H](CN4CCCC4)C(C)C)n(C)n3)n2)c1` [Example 112, 1-methyl-3-{2-[(3-methylphenyl)amino]pyrimidin-4-yl}-N-[(2S)-3-methyl-1-(pyrrolidin-1-yl)butan-2-yl]-1H-pyrazole-5-carboxamide] was run?
The IC50 was 0.023 µM.

Which IC50 does the source give for `Cc1cc(C)cc(Nc2nccc(-c3cc(C(=O)N4CCC(N)C4)n(C)n3)n2)c1` (centres unmarked) [Example 88, (3-aminopyrrolidin-1-yl)(3-{2-[(3,5-dimethylphenyl)amino]pyrimidin-4-yl}-1-methyl-1H-pyrazol-5-yl)methanone] here?
Its IC50 is 0.051 µM.

Which IC50 does the source give for `C[C@@H](CN1CCC1)NC(=O)c1cc(-c2ccnc(Nc3ccc4c(c3)c(Cl)cn4C)n2)nn1C` [Example 59, N-[(2S)-1-(azetidin-1-yl)propan-2-yl]-3-{2-[(3-chloro-1-methyl-1H-indol-5-yl)amino]pyrimidin-4-yl}-1-methyl-1H-pyrazole-5-carboxamide] here?
The IC50 was under 0.004 µM.

Which IC50 does the source give for `Cc1cc(C)cc(Nc2nccc(-c3cc(C(=O)Nc4cc[nH]n4)n(C)n3)n2)c1` [Example 20, 3-{2-[(3,5-dimethylphenyl)amino]pyrimidin-4-yl}-1-methyl-N-(1H-pyrazol-3-yl)-1H-pyrazole-5-carboxamide] here?
Its IC50 is 0.109 µM.

How did the IC50 turn out when `Cc1cc(C)cc(Nc2nccc(-c3cc(C(=O)N4CC[C@H](N(C)C)C4)n(C)n3)n2)c1` [Example 86, [(3S)-3-(dimethylamino)pyrrolidin-1-yl](3-{2-[(3,5-dimethylphenyl)amino]pyrimidin-4-yl}-1-methyl-1H-pyrazol-5-yl)methanone] was run?
The IC50 was 0.471 µM.

For `Cc1cc(C)cc(Nc2nccc(-c3cc(C(=O)NCC(C)(C)C)n(C)n3)n2)c1` [Example 45, 3-{2-[(3,5-dimethylphenyl)amino]pyrimidin-4-yl}-N-(2,2-dimethylpropyl)-1-methyl-1H-pyrazole-5-carboxamide], which IC50 is on record?
The IC50 was 0.065 µM.

With `Cc1cc(C)cc(Nc2nccc(-c3cc(C(=O)N4CCN(C)CC4)n(C)n3)n2)c1` [Example 21, (3-{2-[(3,5-dimethylphenyl)amino]pyrimidin-4-yl}-1-methyl-1H-pyrazol-5-yl)(4-methylpiperazin-1-yl)methanone] as the molecule, how does the IC50 read?
The IC50 was 0.238 µM.

How did the IC50 turn out when `Cc1cc(C)cc(Nc2nccc(-c3cc(C(=O)NC4CNC4)n(C)n3)n2)c1` [Example 8, N-(azetidin-3-yl)-3-{2-[(3,5-dimethylphenyl)amino]pyrimidin-4-yl}-1-methyl-1H-pyrazole-5-carboxamide trifluoroacetate] was run?
Its IC50 is 0.282 µM.

`Cc1cc(C)cc(Nc2nccc(-c3cc(C(=O)NCc4cncn4C)n(C)n3)n2)c1` [Example 25, 3-{2-[(3,5-dimethylphenyl)amino]pyrimidin-4-yl}-1-methyl-N-[(1-methyl-1H-imidazol-5-yl)methyl]-1H-pyrazole-5-carboxamide] was tested. Which IC50 did it give?
The IC50 was 0.249 µM.

With `Cc1cc(C)cc(Nc2nccc(-c3cc(C(=O)N[C@@H](C)C(F)(F)F)n(C)n3)n2)c1` [Example 42, 3-{2-[(3,5-dimethylphenyl)amino]pyrimidin-4-yl}-1-methyl-N-[(2S)-1,1,1-trifluoropropan-2-yl]-1H-pyrazole-5-carboxamide] as the molecule, how does the IC50 read?
Its IC50 is 0.474 µM.

Which IC50 does the source give for `Cc1cc(C)cc(Nc2nccc(-c3cc(C(=O)N[C@H]4CCCC[C@H]4N)[nH]n3)n2)c1` [Example 104, N-[(1S,2R)-2-aminocyclohexyl]-3-{2-[(3,5-dimethylphenyl)amino]pyrimidin-4-yl}-1H-pyrazole-5-carboxamide hydrochloride] here?
Its IC50 is under 0.004 µM.

With `C[C@@H](CO)NC(=O)c1cc(-c2ccnc(Nc3cc(C(F)(F)F)cc(C(F)(F)F)c3)n2)nn1C` [Example 19, 3-(2-{[3,5-bis(trifluoromethyl)phenyl]amino}pyrimidin-4-yl)-N-[(2S)-1-hydroxypropan-2-yl]-1-methyl-1H-pyrazole-5-carboxamide] as the molecule, how does the IC50 read?
The IC50 was 0.104 µM.

For `Cc1cc(C)cc(Nc2nccc(-c3cc(C(=O)N[C@@H]4CCCC[C@@H]4O)n(C)n3)n2)c1` [Example 91, 3-{2-[(3,5-dimethylphenyl)amino]pyrimidin-4-yl}-N-[(1R,2S)-2-hydroxycyclohexyl]-1-methyl-1H-pyrazole-5-carboxamide], which IC50 is on record?
The IC50 was 0.035 µM.

With `Cc1cc(C)cc(Nc2nccc(-c3cc(C(=O)N[C@H]4CCCC[C@H]4O)n(C)n3)n2)c1` [Example 115, 3-{2-[(3,5-dimethylphenyl)amino]pyrimidin-4-yl}-N-[(1S,2R)-2-hydroxycyclohexyl]-1-methyl-1H-pyrazole-5-carboxamide] as the molecule, how does the IC50 read?
Its IC50 is 0.023 µM.

For `CC[C@H](NC(=O)c1cc(-c2ccnc(Nc3cc(C)cc(C)c3)n2)nn1C)C(F)(F)F` [Example 55, 3-{2-[(3,5-dimethylphenyl)amino]pyrimidin-4-yl}-1-methyl-N-[(2S)-1,1,1-trifluorobutan-2-yl]-1H-pyrazole-5-carboxamide], which IC50 is on record?
The IC50 was 0.324 µM.

Which IC50 does the source give for `Cc1cc(C)cc(Nc2nccc(-c3cc(C(=O)N[C@H](CN4CCCC4)c4ccccc4)n(C)n3)n2)c1` [Example 107, 3-{2-[(3,5-dimethylphenyl)amino]pyrimidin-4-yl}-1-methyl-N-[(1S)-1-phenyl-2-(pyrrolidin-1-yl)ethyl]-1H-pyrazole-5-carboxamide] here?
Its IC50 is 0.026 µM.

`Cc1c(C)n(C)c2ccc(Nc3nccc(-c4cc(C(=O)N[C@@H](C)CO)n(C)n4)n3)cc12` [Example 93, N-[(2S)-1-hydroxypropan-2-yl]-1-methyl-3-{2-[(1,2,3-trimethyl-1H-indol-5-yl)amino]pyrimidin-4-yl}-1H-pyrazole-5-carboxamide] was tested. Which IC50 did it give?
The IC50 was 0.137 µM.

How did the IC50 turn out when `Cc1cc(C)cc(Nc2nccc(-c3cc(C(=O)N(C)C)n(C)n3)n2)c1` [Example 15, 3-{2-[(3,5-dimethylphenyl)amino]pyrimidin-4-yl}-N,N,1-trimethyl-1H-pyrazole-5-carboxamide] was run?
The IC50 was 0.358 µM.

For `COc1cccc(Nc2nccc(-c3cc(C(=O)N[C@@H](C)CN4CCCC4)n(C)n3)n2)c1` [Example 70, 3-{2-[(3-methoxyphenyl)amino]pyrimidin-4-yl}-1-methyl-N-[(2S)-1-(pyrrolidin-1-yl)propan-2-yl]-1H-pyrazole-5-carboxamide], which IC50 is on record?
Its IC50 is 0.032 µM.

Which IC50 does the source give for `Cc1cc(C)cc(Nc2nccc(-c3cc(C(=O)NCC(C)C)n(C)n3)n2)c1` [Example 46, 3-{2-[(3,5-dimethylphenyl)amino]pyrimidin-4-yl}-1-methyl-N-(2-methylpropyl)-1H-pyrazole-5-carboxamide] here?
The IC50 was 0.049 µM.

Which IC50 does the source give for `Cc1cc(C)cc(Nc2nccc(-c3cc(C(=O)N(C)CCN(C)C)n(C)n3)n2)c1` [Example 5, N-[2-(dimethylamino)ethyl]-3-{2-[(3,5-dimethylphenyl)amino]pyrimidin-4-yl}-N,1-dimethyl-1H-pyrazole-5-carboxamide] here?
Its IC50 is 0.084 µM.

`CC(C)[C@@H](CO)NC(=O)c1cc(-c2ccnc(Nc3ccc(N4CCN(C)CC4)c(Cl)c3)n2)nn1C` [Example 111, 3-(2-{[3-chloro-4-(4-methylpiperazin-1-yl)phenyl]amino}pyrimidin-4-yl)-N-[(2S)-1-hydroxy-3-methylbutan-2-yl]-1-methyl-1H-pyrazole-5-carboxamide] was tested. Which IC50 did it give?
The IC50 was 0.144 µM.

With `CN1CCN(c2ccc(Nc3nccc(-c4cc(C(=O)N[C@H]5CCCC[C@H]5O)n(C)n4)n3)cc2Cl)CC1` [Example 114, 3-(2-{[3-chloro-4-(4-methylpiperazin-1-yl)phenyl]amino}pyrimidin-4-yl)-N-[(1S,2R)-2-hydroxycyclohexyl]-1-methyl-1H-pyrazole-5-carboxamide] as the molecule, how does the IC50 read?
The IC50 was 0.191 µM.

`Cn1nc(-c2ccnc(Nc3cc(F)cc(F)c3)n2)cc1C(=O)N[C@H]1CCCC[C@@H]1N` [Example 113, N-[(1S,2S)-2-aminocyclohexyl]-3-{2-[(3,5-difluorophenyl)amino]pyrimidin-4-yl}-1-methyl-1H-pyrazole-5-carboxamide] was tested. Which IC50 did it give?
The IC50 was 0.061 µM.

How did the IC50 turn out when `CCn1nc(-c2ccnc(Nc3cc(C)cc(C)c3)n2)cc1C(=O)N[C@@H]1CCCNC1` [Example 122, 3-{2-[(3,5-dimethylphenyl)amino]pyrimidin-4-yl}-1-ethyl-N-[(3R)-piperidin-3-yl]-1H-pyrazole-5-carboxamide hydrochloride] was run?
The IC50 was 0.06 µM.

With `Cn1nc(-c2ccnc(Nc3cc(Cl)cc(Cl)c3)n2)cc1C(=O)N[C@H]1CCCC[C@@H]1N` [Example 116, N-[(1S,2S)-2-aminocyclohexyl]-3-{2-[(3,5-dichlorophenyl)amino]pyrimidin-4-yl}-1-methyl-1H-pyrazole-5-carboxamide] as the molecule, how does the IC50 read?
The IC50 was 0.011 µM.

How did the IC50 turn out when `Cc1cccc(Nc2nccc(-c3cc(C(=O)N[C@H](CO)C(C)C)n(C)n3)n2)c1` [Example 41, N-[(2S)-1-hydroxy-3-methylbutan-2-yl]-1-methyl-3-{2-[(3-methylphenyl)amino]pyrimidin-4-yl}-1H-pyrazole-5-carboxamide] was run?
The IC50 was 0.077 µM.

How did the IC50 turn out when `COc1cc(Nc2nccc(-c3cc(C(=O)N[C@@H](C)CN4CCCC4)n(C)n3)n2)cc(OC)c1OC` [Example 58, 1-methyl-N-[(2S)-1-(pyrrolidin-1-yl)propan-2-yl]-3-{2-[(3,4,5-trimethoxyphenyl)amino]pyrimidin-4-yl}-1H-pyrazole-5-carboxamide] was run?
The IC50 was 0.059 µM.
